Measured values published in ChEMBL document CHEMBL1159099, “Structure and in vitro antitumor activity evaluation of brominated diterpenes from the red alga Sphaerococcus coronopifolius” (Bioorg Med Chem, 2010).
Activity calls are given as the source filed them. The rule behind the calls is not given here.

Experiments:
[1] = Growth inhibition of human apoptosis-resistant U373 cells after 72 hrs by MTT assay; assay type: functional, cell-based, U-373MG ATCC; settings: U373 MG
SK-MEL-28 = experiment: Growth inhibition of human apoptosis-resistant SK-MEL-28 cells after 72 hrs by MTT assay; assay type: functional, cell-based; settings: SK-MEL-28, 72 h
LoVo = experiment: Growth inhibition of human apoptosis-sensitive LoVo cells after 72 hrs by MTT assay; assay type: functional, cell-based
PC-3 = experiment: Growth inhibition of human apoptosis-sensitive PC3 cells after 72 hrs by MTT assay; assay type: functional, cell-based; settings: PC-3, 72 h
[2] = Growth inhibition of human apoptosis-resistant OE21 cells after 72 hrs by MTT assay; assay type: functional, cell-based; settings: OE21, 72 h
A549 = experiment: Growth inhibition of human apoptosis-resistant A549 cells after 72 hrs by MTT assay; assay type: functional, cell-based; settings: A549, 72 h
U-373MG ATCC [3] = experiment: Cytostatic effect against human apoptosis-resistant U373 cells at 7 uM assessed as induction of vacuolization after 72 hrs by computer-assisted phase contrast microscopy; assay type: functional, cell-based
U-373MG ATCC [4] = experiment: Cytostatic effect against human apoptosis-resistant U373 cells assessed as inhibition of cell entry into mitosis at 3 uM after 72 hrs by computer-assisted phase contrast microscopy; assay type: functional, cell-based
U-373MG ATCC [5] = experiment: Cytostatic effect against human apoptosis-resistant U373 cells assessed as increase in mitosis duration at 16 uM after 72 hrs by computer-assisted phase contrast microscopy; assay type: functional, cell-based

| Structure (SMILES) | IC50 (SK-MEL-28) [µM] | IC50 (LoVo) [µM] | IC50 (PC-3) [µM] | IC50 (A549) [µM] | IC50 [1] [µM] | IC50 [2] [µM] | inhibition (U-373MG ATCC [3]) | inhibition (U-373MG ATCC [4]) | inhibition (U-373MG ATCC [5]) |
| --- | --- | --- | --- | --- | --- | --- | --- | --- | --- |
| CC(C)[C@]1(O)C[C@H]2C[C@H]3[C@H]4[C@](C)(CC[C@@]31C2)[C@@H](Br)CC[C@@]4(C)O | > 100 | 56 | 43 | 63 | 75 | 64 |  |  |  |
| CC(C)[C@@H]1C=C[C@H](OO)[C@H]2[C@@H]3[C@](C)(O)[C@H](O)C[C@H](Br)[C@@]3(C)CC[C@@]21CBr | 31 | 22 | 30 | 40 | 32 | 25 |  |  |  |
| C=C1CC[C@@]2(C)[C@H](/C=C/CC[C@H]1C(C)C)[C@](C)(O)[C@H](O)C[C@@H]2Br | 62 | 24 | 48 | 64 | 60 | 33 |  |  |  |
| C=C1CC[C@H]2[C@@H](C(C)C)CC[C@@H]2/C=C/[C@](C)(O)CC[C@H]1OC(C)=O [SPHAEROLLANE I] | 57 | 23 | 34 | 44 | 20 | 34 |  |  |  |
| C=C1CC[C@@H]2[C@H]([C@@H]3[C@H](C)CC[C@H]13)C2(C)C | > 100 | 63 | 35 | 79 | 71 | 83 |  |  |  |
| CC(C)[C@@H]1C[C@@H]2C[C@@]13CC[C@]1(C)[C@@H](Br)CC[C@@](C)(O)[C@H]1[C@@H]3[C@H]2O [BROMOTETRASPHAEROL] | 43 | 26 | 30 | 38 | 34 | 33 |  |  |  |
| CC(C)[C@@H]1C=C[C@H](OO)[C@H]2[C@@H]3[C@](C)(O)[C@@H](O)C[C@H](Br)[C@@]3(C)CC[C@@]21CBr | 28 | 28 | 28 | 26 | 22 | 27 |  |  |  |
| CC(C)[C@@H]1CC[C@@H]2[C@@H](O)[C@H]3[C@](C)(CC[C@]21C)[C@@H](Br)CC[C@@]3(C)O [NEODOLASTANE] | 96 | 64 | 74 | 97 | 85 | 60 |  |  |  |

The remaining molecules from weak to strong by IC50 (SK-MEL-28), led by results:

| IC50 (SK-MEL-28) [µM] | IC50 (LoVo) [µM] | IC50 (PC-3) [µM] | IC50 (A549) [µM] | Structure (SMILES) | IC50 [1] [µM] | IC50 [2] [µM] | inhibition (U-373MG ATCC [3]) | inhibition (U-373MG ATCC [4]) | inhibition (U-373MG ATCC [5]) |
| --- | --- | --- | --- | --- | --- | --- | --- | --- | --- |
| 38 | 28 | 30 | 42 | CC(=O)[C@H]1[C@@H]2[C@H]3CC[C@@H](C(C)C)[C@]3(C)CC[C@]2(C)[C@@H](Br)C[C@@H]1O [CORONONE] | 31 | 30 |  |  |  |
| 34 | 23 | 30 | 35 | CC(C)[C@@H]1CC=C[C@H]2[C@H]3[C@](C)(CC[C@]12CBr)[C@@H](Br)CC[C@@]3(C)O [BROMOSPHAEROL] | 30 | 28 |  |  |  |
| 31 | 20 | 26 | 24 | CC(C)[C@@H]1C=C[C@H](O)[C@H]2[C@H]3[C@](C)(CC[C@@]21CBr)[C@@H](Br)CC[C@@]3(C)O [BROMOSPHAERODIOL] | 22 | 15 |  |  |  |
| 29 | 26 | 26 | 28 | CC(C)[C@@H]1CC=C[C@H]2[C@@H]3[C@](C)(O)[C@H](O)C[C@H](Br)[C@@]3(C)CC[C@]12CBr | 25 | 25 |  |  |  |
| 26 | 23 | 25 | 28.6 | CC(C)[C@@H]1CC[C@H](O)[C@H]2[C@H]3[C@](C)(CC[C@@]21CBr)[C@@H](Br)CC[C@@]3(C)O | 25 | 20 |  |  |  |
| 22 | 9 | 12 | 19 | CC(C)[C@@H]1CC=C[C@H]2[C@@H]3[C@](C)(O)[C@@H](O)C[C@H](Br)[C@@]3(C)CC[C@]12CBr | 16 | 19 |  |  | Active |
| 21 | 5.3 | 8.1 | 18 | CC(C)[C@@H]1CC=C[C@H]2[C@H]3[C@](C)(CC[C@]12CBr)[C@@H](O)CC(=O)[C@@]3(C)O | 7.2 | 8.4 | Active |  |  |
| 5.2 | 2.8 | 3.7 | 3.7 | CC(C)[C@@H]1CC=C[C@H]2[C@H]3[C@@](C)(C=CC(=O)[C@@]3(C)O)CC[C@]12CBr [SPHAEROCOCCENOL A] | 3.2 | 3 |  | Active |  |
